# Patent publication US20210244704A1, “Cabazitaxel in mCRPC Patients Previously Treated with Docetaxel and Who Failed a Prior androgen signaling targeted inhibitor Agent” (SANOFI MATURE IP, priority 2019, published 2021)
# What was measured:
# mCRPC patients [1] = details: at 3 months; cited from earlier work
# [2] = test system: mCRPC patients, safety population; test: Same clinical study: safety (adverse events, laboratory abnormalities, dose reductions); assay type: in vivo, human; details: human, in vivo
# Procedure: For patients in Arm A, cabazitaxel 25 mg/m^2 was administered intravenously over 1 hour every 3 weeks along with oral prednisone 10 mg given daily. Primary prophylactic granulocyte-colony stimulating factor (G-CSF) was required at each cycle for all patients in the cabazitaxel arm
# For patients in Arm B, abiraterone acetate was administered orally at 1000 mg once daily along with oral prednisone 5 mg given twice daily or enzalutamide was administered orally at 160 mg once daily continuously. Abiraterone acetate was administered to patients who had received enzalutamide prior to study entry. Enzalutamide was administered to patients who received prior abiraterone acetate.
# Cabazitaxel 25 mg/m^2, was administered intravenously over 1 hour every 3 weeks with oral prednisone 10 mg daily. Premedication included an antihistamine, glucocorticoid (dexamethasone 8 mg or equivalent), and histamine 2 receptor antagonist. Antiemetic prophylaxis was administered at physician's discretion. Primary prophylactic granulocyte-colony stimulating factor was required during each cycle of cabazitaxel. Patients received either abiraterone acetate (1000 mg orally once daily and oral prednisone 5 mg twice daily) or enzalutamide (160 mg orally once daily) continuously. A treatment cycle was 3 weeks in both arms. Abiraterone acetate was given to patients who previously received enzalutamide before study entry. Enzalutamide was given to patients who previously received abiraterone acetate.
# Up to a maximum of 2 dose reductions was allowed per patient when necessary due to toxicity and according to the table below:
# Efficacy analysis used all randomized patients. Stratified log-rank tests were used to analyze time-to-event data. The primary analysis compared radiographic progression-free survival between the two treatment groups using a stratified log-rank test. Survival curves were generated using Kaplan-Meier estimates. Hazard ratios and associated 95% confidence intervals [CI] were estimated using a stratified Cox proportional hazards model. Stratified Cochran-Mantel-Haenszel chi-square tests were used to analyze categorical data. Descriptive statistics were used to summarize patient characteristics. The safety population (randomized patients who received at least one dose of study treatment) was used for all safety analyses.
# mCRPC patients [3] = details: 3 months; cited from earlier work
# [4] = test system: patients with mCRPC who progressed during or after docetaxel; details: every 3 weeks with prednisone 10 mg daily; cabazitaxel 25 mg/m^2, mitoxantrone 12 mg/m^2; cited from earlier work
compound,measurement,setting,value
"CNC(=O)c1ccc(N2C(=S)N(c3ccc(C#N)c(C(F)(F)F)c3)C(=O)C2(C)C)cc1F [enzalutamide, 4-{3-[4-cyano-3-(trifluoromethyl)phenyl]-5,5-dimethyl-4-oxo-2-sulfanylideneimidazolidin-1-yl}-2-fluoro-N-methylbenzamide]",Patients with imaging-based progression,mCRPC patients [1],about 25%
"CC(=O)O[C@H]1CC[C@@]2(C)C(=CC[C@@H]3[C@@H]2CC[C@]2(C)C(c4cccnc4)=CC[C@@H]32)C1 [abiraterone acetate, (3β)-17-(3-pyridinyl) androsta-5,16-dien-3-yl acetate]",At least one dose reduction required,[2],17 patients
same,"Patients with primary resistance, imaging-based progression at the first visit",mCRPC patients [3],about 30%
O=C1c2c(O)ccc(O)c2C(=O)c2c(NCCNCCO)ccc(NCCNCCO)c21 [mitoxantrone],"Median overall survival, TROPIC trial",[4],12.7 months
